Measurements taken from patent US20040116330A1, “Preventive/therapeutic method for cancer” (priority 2001, published 2004).

Columns and labels:
[1] = system: HER2 non-expression cells (Ma-1); conditions: 3 days, cell count
Description: (§1) 1) Cell growth inhibitory action; Each cell line was sown in a 24-well multi-well plate (5×10^4 cells/well) and cultured overnight in a carbon dioxide gas incubator (5% CO2, 37° C. ).

[2] = system: HER2 expression cells (Ma-46); conditions: 3 days, cell count
Description: as §1

[3] = system: HER2/EGF-R co-expression cells (A549); conditions: 3 days, cell count
Description: as §1

[4] = system: HER2 high expression human breast cancer cell BT-474; test: Anti-tumor effect, combined use, BT-474 cancer-bearing nude mice; format: in vivo; conditions: BT-474 nude mice, 5 cases out of 5, same regimens as T/C
Description: An increase in the tumor volume from that before administration to that on the next day of the final administration was compared to that of the control group and anti-tumor effect was studied. In addition, the tumor volume was calculated from the following equation:
Formula: Tumor volume=longer diameter×shorter diameter×shorter diameter×(½)
The ratio of the value obtained by subtracting the tumor volume on the day of administration initiation from the tumor volume on the next day of the completion of the administration in the control group, and the value obtained by subtracting the tumor volume on the day of administration initiation from the tumor volume on the next day of the completion of the administration was determined as a growth rate (T/C (%)).

[5] = molecular target: T1, HER2 (Homo sapiens, UniProt P04626); test: in vivo
Description: Four hours later, the tumor was sampled and a tumor homogenate was prepared.

[6] = molecular target: T1, HER2; test: cell-based
[7] = system: HER2 high expression human breast cancer cells BT-474; conditions: BT-474, 1 μmol/L, 5 days
Description: After the culture, the culture medium was removed and a cell suspension was prepared by a trypsin treatment and the cells were fixed with 70% ethanol. The DNA of the cells was stained with propidium iodide and the DNA amount was measured by a flow cytometer. The cells with a decreased amount of DNA are apoptotic (cell death) cells.

[8] = system: HER2 high expression human breast cancer cells BT-474; conditions: HER2 score 3+, dose 20 mg/kg/day orally for 14 days
Description: Immediately after transplantation and day 7 after the transplantation, estradiol dipropionate (5 mg/kg solution, 50 μL) was intramuscularly administered to the hind leg with the aim of enhancing the survival rate of the tumor. HER2 expression human non-parvicellular lung cancer A549 cells were suspended in Matrigel solution and 5,000,000 cells were subcutaneously transplanted into the chest of female BALB/c nude mouse (6 weeks of age). HER2 expression human kidney cancer ACHN cells (2,000,000 cells) were subcutaneously transplanted into the chest of nude mouse. […]
(§2) An increase in the tumor volume from that before administration to that on the next day of the final administration was compared to that of the control group and an anti-tumor effect was studied. In addition, the tumor volume was calculated from the following equation: […]
(§3) A ratio of the value obtained by subtracting a tumor volume on the day of the administration initiation from the tumor volume on the next day of the completion of the administration in the control group, and the value obtained by subtracting the tumor volume on the day of the administration initiation from the tumor volume on the next day of the completion of the administration was determined as a growth rate (T/C (%)).

[9] = molecular target: Src (Homo sapiens, UniProt P12931); test: cell-based
Description: The medium was changed to a serum-free medium and the cells were further incubated for one day. […] The culture medium was removed 5 min later and SDS sample buffer was added to give a cell lysate (200 μL).

[10] = system: MDA-MB-231; conditions: breast, HER2 score 0, dose 20 mg/kg/day orally for 14 days
Description: as §2, §3

[11] = system: A549; test: cells; conditions: Homo sapiens, A549, read-out: Compound B4 IC50 (μmol/L), A549
Description: (§4) 1) Cell growth inhibitory action; Each cell line was sown in a 24-well multi-well plate (5×10^4 to 2×10^5 cells/well) and cultured overnight in a carbon dioxide gas incubator (5% CO2, 37° C. ).

[12] = system: G401; test: cells; conditions: Homo sapiens, G-401, read-out: Compound B4 IC50 (μmol/L), G401
Description: as §4

[13] = system: Ma-1; test: cells; conditions: read-out: Compound B4 IC50 (μmol/L), Ma-1
Description: as §4

[14] = system: BT-474; test: cells; conditions: Homo sapiens, BT-474, read-out: Compound B4 IC50 (μmol/L), BT-474
Description: as §4

[15] = system: MDA-MB-231; test: cells; conditions: Homo sapiens, MDA-MB-231, read-out: Compound B4 IC50 (μmol/L), MDA-MB-231
Description: as §4

[16] = system: BxPC-3; test: cells; conditions: Homo sapiens, BXPC-3, read-out: Compound B4 IC50 (μmol/L), BxPC-3
Description: as §4

[17] = system: ACHN; test: cells; conditions: Homo sapiens, read-out: Compound B4 IC50 (μmol/L), ACHN
Description: as §4

[18] = system: 786-O; test: cells; conditions: Homo sapiens, 786-0, read-out: Compound B4 IC50 (μmol/L), 786-O
Description: as §4

[19] = system: SW480; test: cells; conditions: Homo sapiens, SW480, read-out: Compound B4 IC50 (μmol/L), SW480
Description: as §4

[20] = system: ES-2; test: cells; conditions: Homo sapiens, ES-2, read-out: Compound B4 IC50 (μmol/L), ES-2
Description: as §4

[21] = system: HCT-116; test: cells; conditions: Homo sapiens, HCT-116, read-out: Compound B4 IC50 (μmol/L), HCT-116
Description: as §4

[22] = system: MIA-PaCa-2; test: cells; conditions: Homo sapiens, MIA PaCa-2, read-out: Compound B4 IC50 (μmol/L), MIA-PaCa-2
Description: as §4

[23] = system: NIH: OV-CAR-3; test: cells; conditions: Homo sapiens, OVCAR-3, read-out: Compound B4 IC50 (μmol/L), NIH: OV-CAR-3
Description: as §4

[24] = system: PA-1; test: cells; conditions: Homo sapiens, PA-1, read-out: Compound B4 IC50 (μmol/L), PA-1
Description: as §4

T1 sequence (P04626 23-1255): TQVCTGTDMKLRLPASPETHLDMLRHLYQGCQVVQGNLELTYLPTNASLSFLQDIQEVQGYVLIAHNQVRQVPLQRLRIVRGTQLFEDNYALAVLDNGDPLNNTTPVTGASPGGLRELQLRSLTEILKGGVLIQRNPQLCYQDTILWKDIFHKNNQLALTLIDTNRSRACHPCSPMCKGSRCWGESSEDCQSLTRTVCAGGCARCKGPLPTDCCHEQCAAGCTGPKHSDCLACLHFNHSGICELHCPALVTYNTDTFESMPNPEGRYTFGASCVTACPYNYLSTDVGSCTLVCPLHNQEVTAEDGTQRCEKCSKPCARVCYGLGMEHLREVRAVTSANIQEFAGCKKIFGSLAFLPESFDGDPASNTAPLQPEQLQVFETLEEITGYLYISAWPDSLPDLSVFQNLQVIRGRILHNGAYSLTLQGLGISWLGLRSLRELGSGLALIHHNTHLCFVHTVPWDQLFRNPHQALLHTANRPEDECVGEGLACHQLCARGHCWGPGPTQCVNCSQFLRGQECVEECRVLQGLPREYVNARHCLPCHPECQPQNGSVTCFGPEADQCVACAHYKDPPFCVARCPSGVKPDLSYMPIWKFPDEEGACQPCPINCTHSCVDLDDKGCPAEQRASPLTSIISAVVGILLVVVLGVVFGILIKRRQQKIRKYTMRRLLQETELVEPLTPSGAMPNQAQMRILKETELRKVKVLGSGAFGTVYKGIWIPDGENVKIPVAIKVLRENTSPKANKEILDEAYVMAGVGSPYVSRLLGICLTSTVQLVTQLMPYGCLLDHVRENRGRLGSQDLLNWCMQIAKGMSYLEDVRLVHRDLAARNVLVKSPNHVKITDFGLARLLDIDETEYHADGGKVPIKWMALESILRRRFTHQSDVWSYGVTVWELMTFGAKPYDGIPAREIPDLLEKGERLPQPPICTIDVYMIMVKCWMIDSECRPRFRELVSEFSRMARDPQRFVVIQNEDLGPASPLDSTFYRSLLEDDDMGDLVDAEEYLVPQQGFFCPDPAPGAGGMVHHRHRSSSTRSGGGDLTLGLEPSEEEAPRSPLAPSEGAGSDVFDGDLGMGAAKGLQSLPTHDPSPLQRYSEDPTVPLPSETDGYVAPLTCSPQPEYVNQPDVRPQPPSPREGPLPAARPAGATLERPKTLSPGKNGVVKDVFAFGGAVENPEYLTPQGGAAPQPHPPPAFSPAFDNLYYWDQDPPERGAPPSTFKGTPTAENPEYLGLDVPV
Chain of Src (P12931 2-536 limits assumed): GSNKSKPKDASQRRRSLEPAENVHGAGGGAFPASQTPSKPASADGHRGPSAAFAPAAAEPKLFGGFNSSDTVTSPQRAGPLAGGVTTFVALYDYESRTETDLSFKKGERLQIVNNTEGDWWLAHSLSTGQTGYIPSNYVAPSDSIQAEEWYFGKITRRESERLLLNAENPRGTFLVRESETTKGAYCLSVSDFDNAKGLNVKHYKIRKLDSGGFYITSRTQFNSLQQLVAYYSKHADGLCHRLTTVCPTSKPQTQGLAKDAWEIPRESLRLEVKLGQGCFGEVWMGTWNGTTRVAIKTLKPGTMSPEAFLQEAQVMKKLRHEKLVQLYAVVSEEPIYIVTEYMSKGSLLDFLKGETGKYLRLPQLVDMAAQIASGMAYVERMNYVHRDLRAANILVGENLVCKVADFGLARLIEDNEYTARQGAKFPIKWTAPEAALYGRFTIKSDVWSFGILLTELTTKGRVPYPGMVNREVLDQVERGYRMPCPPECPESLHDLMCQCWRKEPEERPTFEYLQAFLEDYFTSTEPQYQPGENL

FC(F)(F)c1ccc(/C=C/c2nc(COc3ccc(CCCCn4ccnn4)cc3)co2)cc1 [Compound B4, 1-(4-{4-[(2-{(E)-2-[4-(trifluoromethyl)phenyl]ethenyl}-1,3-oxazol-4-yl)methoxy]phenyl}butyl)-1H-1,2,3-triazole]
cell growth inhibitory action on Ma-1 [1]: did not show a cell growth inhibitory action
cell growth inhibitory action on Ma-46 [2]: strong cell growth inhibitory action
cell growth inhibitory action on A549 [3]: strong cell growth inhibitory action
reduction of tumor volume [4]: 13-30%
inhibition at 20 mg/kg ([5]; BT-474, mouse, po, read-out: intra-tumor HER2 phosphorylation, % inhibition): 87%
intra-tumor HER2 phosphorylation (per tumor weight), % of the control group ([5]; BT-474 nude mice, 20 mg/kg/day orally 14 days then 10 mg/kg, tumor sampled four hours later): 13%
IC50 [6]: 4 nM
cell death induction [7]: induced cell death
T/C (%), BT-474 [8]: −18%
IC50 [9]: > 25000 nM
T/C (%), MDA-MB-231 [10]: 87%
IC50 [11]: 0.008 µmol/L
IC50 [12]: < 0.05 µmol/L
IC50 [13]: > 25 µmol/L
IC50 [14]: 0.05 µmol/L
IC50 [15]: > 25 µmol/L
IC50 [16]: > 25 µmol/L
IC50 [17]: 0.14 µmol/L
IC50 [18]: > 25 µmol/L
IC50 [19]: > 25 µmol/L
IC50 [20]: 12 µmol/L
IC50 [21]: < 0.05 µmol/L
IC50 [22]: 0.02 µmol/L
IC50 [23]: 0.06 µmol/L
IC50 [24]: < 0.05 µmol/L
